Reference: patent US12534501B2, “Targeting deregulated Wnt signaling in cancer using stabilized alpha-helices of BCL-9” (Dana-Farber Cancer Institute, Inc., priority 2011, dated 2026)
Numbered stars: 1 amine (or outer) side, 2 acyl side, 3 side chain; on linkers, the order of the positions; unused ones are H or OH. Bridge positions count the residues as written; N and C are the ends. Square brackets hold non-standard residues; d marks the D form. Peptide text beside a SMILES is read from it. ξ: configuration not given here. ξαMeNle(6-ylidene) = CC(CCCC=[*:3])(N[*:1])C(=O)[*:2]; Nle = CCCC[C@H](N)C(=O)O

Tests used:
[1] = system: β-catenin/BCL9-driven transcription in HCT116 cells; assay: TOP-FLASH dual luciferase assay with pcDNA-BCL9 transfection; format: cell-based; conditions: HCT116, TOP-FLASH and pcDNA-BCL9, peptides 5 μM, 24 h
[2] = system: GFP-positive Colo320 cells in NOD/SCID mice; assay: Colo320 intraperitoneal xenograft model; format: in vivo
Procedure: To explore the therapeutic potential of targeting the BCL9/β-catenin interaction, the capacity of SAH-BCL9B to suppress tumor growth was examined in vivo. GFP-expressing Colo320 cells (1×10^6) were injected into the peritoneum of sublethally irradiated NOD/SCID mice. Two days after cellular injection, mouse cohorts (n=6) were treated with vehicle (2.5% DMSO in D5W), SAH-BCL9B, or SAH-BCL9B(R359E) peptides (20 mg/kg) for a total of 6 doses administered intraperitoneally every other day. On day 40 of the experiment, mice were sacrificed and evaluated for tumor burden and metastasis by whole body imaging and histologic examination of harvested GFP-positive tissues. […] Importantly, no histologic changes in normal murine tissues were observed across the treatment groups upon necropsy.
GFP-positive Colo320 cells were generated as previously reported (Mani, M. et al. Cancer Res 69, 7577-86 (2009)). Cells were pelleted, resuspended in sterile 1x PBS and injected intraperitoneally (1×10^6 cells/mouse) into 5-week-old sublethally irradiated NOD.CB17-PrkdcSCID/J mice (Jackson Laboratory) (n=6 per cohort). Two days after cellular inoculation, mice were treated by intraperitoneal injection with vehicle (2.5% DMSO in D5W) or SAH-BCL9 peptides (20 mg/kg) on alternate days for a total of 6 doses. Forty days after tumor cell injection, the mice were euthanized and GFP-positive tumor visualized using an ImageQuant LAS-4000 (GE Healthcare). Complete necropsies were performed for each experimental animal and livers were sectioned in their entirety at 5 mm intervals for quantitation of tumor metastases. Tissues were subjected to H&E staining and immunohistochemical analysis using anti-CD34 and anti-CD44 antibodies.

HUVEC = assay: In vitro angiogenesis assay (capillary tube formation); format: cell-based, human; conditions: HUVEC with supernatants of Colo320 or MM1S cells treated at 5 μM for 24 h; read at 5 h
Procedure: Angiogenesis was evaluated as previously described (Mani, M. et al. Cancer Res 69, 7577-86 (2009)) using an in vitro angiogenesis assay kit (Millipore). For capillary tube formation analysis, HUVEC were cultured on polymerized matrix gel and exposed to supernatant media collected from Colo320 or MM1S cells treated with vehicle (0.5% DMSO), SAH-BCL9B peptides (5 μM) for 24 h. The number of capillary tubes formed after 5 h treatment at 37° C. was determined by counting 5 randomly selected fields at 40× magnification, according to manufacture's instructions. HUVEC cultured in VEGF media and VEGF-free media were used as positive and negative controls, respectively. Cellular invasion assays were performed using Matrigel Boyden chambers (BD Biosciences) as described (Mani, M. et al. Cancer Res 69, 7577-86 (2009)). The reported data represent the average of three independent experiments performed in triplicate. See results in FIG. 3H-FIG. 3I.

LS174T cell line = assay: Cell proliferation of cultured colon cancer cells; format: cell-based; conditions: does not express BCL9
Procedure: (§1) Cell proliferation assays were performed as described (Sukhdeo, K. et al. Proc Natl Acad Sci USA 104, 7516-21 (2007)). Cell viability was measured using the CellTiter-Glo assay (Promega) according to the manufacturer's instructions. Apoptosis was evaluated by activated caspase-3 and PARP western blotting. See results in FIG. 3A-FIG. 3F, FIG. 13, and FIG. 20.

[3] = system: HCT116, HCT116DO20 and HCT116KO58 cells; assay: Cell proliferation of cultured colon cancer cells; format: cell-based; conditions: HCT116 and derivatives, not dependent on Wnt/β-catenin activity
Procedure: as §1

[4] = system: CRC cell lines expressing BCL9; assay: Cell proliferation of cultured colon cancer cells; format: cell-based
Procedure: as §1

[5] = system: NFκB luciferase reporter in Colo320 cells; assay: NFκB reporter gene transcriptional assay; format: cell-based; conditions: selectivity control
Procedure: Luciferase activity was measured using the Dual Luciferase Reporter Assay System (Promega) as previously described (Sukhdeo, K. et al. Proc Natl Acad Sci USA 104, 7516-21 (2007)). To measure Wnt or NFκB reporter activity, Colo320 cells were transfected with TOP-FLASH, FOP-FLASH plasmid (Millipore Corporation) or NFκB luciferase reporter (Stratagene), along with an internal Renilla control plasmid (hRL-null). Transfection was accomplished using FuGENE (Roche) according to the manufacturer's protocol. The results were normalized to control Renilla activity. The reported data represent the average of three independent transfection experiments performed in triplicate. See results in FIG. 9, FIG. 10.

[6] = system: Wnt target genes in Colo320 cells; assay: qPCR of Wnt/β-catenin target genes; format: cell-based
Procedure: RNA was extracted with TRIzol Reagent (Invitrogen) according to the manufacturer's protocol. Total RNA (2 μg) was reverse transcribed (SuperScript VILO cDNA synthesis kit, Invitrogen) and qPCR was performed using an Applied Biosynthesis 7500 Real-time PCR system. Analysis of target genes was conducted in quadruplicate using POWER SYBR Green Master Mix (Applied Biosystems) with previously described primer sets. Transcripts levels were normalized to β-actin expression. These experiments were repeated three times. See results in FIG. 2B, FIG. 2C.
To measure the effects of vehicle, SAH-BCL9B, and SAH-BCL9MUT on the expression of Wnt/β-catenin target genes, including VEGF, in Colo320 (FIG. 18) and MM1S (FIG. 19) cell lines, quantitative PCR (qRT-PCR) analysis was performed. RNA was extracted with TRIzol Reagent (Invitrogen) according to the manufacturer's protocol. Total RNA (2 μg) was reverse transcribed (SuperScript VILO cDNA synthesis kit, Invitrogen) and qPCR was performed using an Applied Biosynthesis 7500 Real-time PCR system. PCR primers were designed as below: […]
Analysis of target genes was conducted in quadruplicate using POWER SYBR Green Master Mix (Applied Biosystems) as previously described (M. Mani et al., Cancer Res 69, 7577 (2009)). Transcripts levels were normalized to β-actin expression. These experiments were repeated three times.

MM1S cells = assay: Cell proliferation, [3H]thymidine uptake; format: cell-based; conditions: 5 μM
Procedure: as §1

Colo320 cells = assay: Cell proliferation, [3H]thymidine uptake; format: cell-based; conditions: 5 μM, 24 h
Procedure: as §1

[7] = 20 mg/kg i.p. every other day, 6 doses, day 40

How did the “suppression of reporter activity on increasing BCL9 expression” value [1] turn out when CCCC[C@H](NC(=O)[C@H](CCCNC(=N)N)NC(=O)[C@H](CCC(N)=O)NC(=O)[C@@H](NC(=O)C1(C)CCCC=CCCCC(C)(NC(=O)[C@H](CC(C)C)NC(=O)[C@H](CO)NC(=O)[C@H](CCCNC(=N)N)NC(=O)[C@H](CCC(=O)O)NC(=O)[C@H](CCCNC(=N)N)NC(=O)[C@H](Cc2c[nH]cn2)NC(=O)[C@H](CCC(=O)O)NC(=O)[C@H](CC(C)C)NC(=O)[C@H](CCC(N)=O)NC(=O)[C@H](CCC(=O)O)NC(=O)[C@H](CCC(N)=O)NC(=O)[C@H](CO)NC(=O)[C@H](CC(C)C)NC(C)=O)C(=O)N[C@@H]([C@@H](C)O)C(=O)N[C@@H](CC(C)C)C(=O)N[C@@H](CCCNC(=N)N)C(=O)N1)[C@@H](C)CC)C(=O)N[C@@H](CC(C)C)C(=O)N[C@@H](Cc1ccccc1)C(N)=O (some centres unmarked) [SAH-BCL9B] (Ac-LSQEQLEHRERSL[ξαMeNle(6-ylidene)]TLR[ξαMeNle(6-ylidene)]IQR[Nle]LF-NH2; staple 14-18) was run?
The value was “dose-responsively reversed”.

What about the “metastatic tumor nodules in the liver” value [2, 7] of the same molecule?
Its value is “overall reduction of metastatic tumor nodules”.

What about the “tumor burden (overall tissue fluorescence, whole body imaging)” value [2, 7] of the same molecule?
The value was “markedly reduced”.

What about the “capillary CD34 immunoreactivity” value ([2]; 20 mg/kg i.p., 6 doses) of the same molecule?
The value was “less intense capillary CD34 immunoreactivity”.

What about the “number of intratumoral blood vessels” value ([2]; 20 mg/kg i.p., 6 doses) of the same molecule?
Its value is “reduction in the number of intratumoral blood vessels”.

What about the “tumor cell CD44 immunoreactivity” value ([2]; 20 mg/kg i.p., 6 doses) of the same molecule?
The value was “decreased tumor cell CD44 immunoreactivity”.

What about the “TUNEL positivity in colonic tumor tissue” value ([2]; NOD/SCID mice bearing intraperitoneal Colo320 cells) of the same molecule?
The value was “notably increased TUNEL positivity”.

And the capillary tube formation (HUVEC)?
Its capillary tube formation is “reduced capillary tube formation”.

What about the proliferation (LS174T cell line) of the same molecule?
Its proliferation is “no response”.

What about the proliferation [3] of the same molecule?
Its proliferation is “no sensitivity”.

And the proliferation [4]?
The proliferation was “significantly reduced the proliferation”.

What about the “effect on NFκB reporter activity” value [5] of the same molecule?
The value was “no effect”.

And the “mRNA levels of VEGF, c-Myc, and Axin2” value ([6]; qPCR)?
Its value is “significantly reduced”.

What about the “Actin expression (non-Wnt pathway target gene)” value ([6]; qRT-PCR, Colo320) of the same molecule?
The value was “no change”.

And the “mRNA levels of VEGF, c-MYC, LGR5, LEF1, and AXIN2” value ([6]; qRT-PCR, Colo320 (FIG. 18A), normalized to β-actin)?
The value was “dose-responsively reduced”.

What about the proliferation (MM1S cells) of the same molecule?
The proliferation was “reduced the proliferation”.

What about the proliferation (Colo320 cells) of the same molecule?
The proliferation was “reduced the proliferation”.
